Laboratory results taken from US20250034216A1, “STEREOSELECTIVE COVALENT LIGANDS FOR ONCOGENIC AND IMMUNOLOGICAL PROTEINS” (The Scripps Research Institute, priority 2021, published 2025).

Columns and labels:
Assay in all cases: IA-DTB cysteine engagement
Format in all cases: binding
Settings in all cases: 22Rv1 cells, 20 μM probe, 1 h, relative to DMSO
[1] = molecular target: T1, ABCB8_C462 (Homo sapiens, UniProt Q9NUT2)
T1 construct: endogenous in cells; host or cells: 22Rv1
T1 sequence (Q9NUT2 26-735): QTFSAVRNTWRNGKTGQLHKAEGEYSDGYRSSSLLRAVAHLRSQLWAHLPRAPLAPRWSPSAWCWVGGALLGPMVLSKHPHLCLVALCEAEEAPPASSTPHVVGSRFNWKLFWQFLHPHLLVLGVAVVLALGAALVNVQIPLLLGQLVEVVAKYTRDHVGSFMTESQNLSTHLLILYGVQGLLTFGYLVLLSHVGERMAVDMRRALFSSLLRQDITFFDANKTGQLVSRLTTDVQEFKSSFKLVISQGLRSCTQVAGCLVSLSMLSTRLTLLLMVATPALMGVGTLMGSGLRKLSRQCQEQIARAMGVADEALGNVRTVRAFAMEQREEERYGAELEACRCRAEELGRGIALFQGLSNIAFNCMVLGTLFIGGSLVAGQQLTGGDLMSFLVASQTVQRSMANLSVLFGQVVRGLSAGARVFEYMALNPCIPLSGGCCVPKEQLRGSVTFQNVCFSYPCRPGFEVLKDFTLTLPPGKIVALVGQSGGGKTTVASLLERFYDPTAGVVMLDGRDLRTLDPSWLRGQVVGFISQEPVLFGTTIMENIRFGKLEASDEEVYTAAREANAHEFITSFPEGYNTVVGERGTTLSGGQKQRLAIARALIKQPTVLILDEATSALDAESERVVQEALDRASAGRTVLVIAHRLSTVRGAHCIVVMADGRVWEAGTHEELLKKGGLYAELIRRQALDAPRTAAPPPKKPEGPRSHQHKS
Procedure, shortened: (§1)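 Read-out is TMT-based cysteine engagement, expressed as each reporter ion intensity divided by the average of the DMSO channels. Before that, probe-treated cell lysates were capped with IA-DTB, digested, enriched on streptavidin and TMT-tagged. PSMs with DMSO summed intensity <10,000 or DMSO CV >0.5 were excluded.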

[2] = molecular target: T2, ITPR2_C292 (Homo sapiens, UniProt Q14571)
T2 construct: endogenous in cells; host or cells: 22Rv1
Procedure, shortened: as §1

[3] = molecular target: T3, SLC12A8_C660 (Homo sapiens, UniProt A0AV02)
T3 construct: endogenous in cells; host or cells: 22Rv1
T3 sequence (A0AV02 1-714): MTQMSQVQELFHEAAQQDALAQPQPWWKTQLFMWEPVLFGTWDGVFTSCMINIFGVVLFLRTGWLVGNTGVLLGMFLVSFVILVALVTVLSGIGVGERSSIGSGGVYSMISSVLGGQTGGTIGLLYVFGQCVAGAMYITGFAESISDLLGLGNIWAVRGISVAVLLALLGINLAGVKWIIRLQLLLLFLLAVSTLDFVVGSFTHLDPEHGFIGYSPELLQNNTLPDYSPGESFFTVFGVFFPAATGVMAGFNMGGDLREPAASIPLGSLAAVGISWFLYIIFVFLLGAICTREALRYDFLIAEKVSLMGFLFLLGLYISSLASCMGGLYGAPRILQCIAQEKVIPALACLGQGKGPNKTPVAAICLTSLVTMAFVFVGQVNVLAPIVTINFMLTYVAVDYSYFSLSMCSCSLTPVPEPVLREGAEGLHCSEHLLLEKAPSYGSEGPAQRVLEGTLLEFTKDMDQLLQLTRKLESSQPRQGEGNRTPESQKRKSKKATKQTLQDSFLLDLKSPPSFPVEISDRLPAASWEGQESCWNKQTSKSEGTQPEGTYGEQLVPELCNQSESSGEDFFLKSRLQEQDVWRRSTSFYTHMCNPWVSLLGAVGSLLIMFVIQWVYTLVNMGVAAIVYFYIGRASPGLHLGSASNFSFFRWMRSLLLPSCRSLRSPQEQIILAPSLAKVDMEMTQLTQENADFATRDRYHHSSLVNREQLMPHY
Procedure, shortened: as §1

T2 sequence (Q14571 whole entry): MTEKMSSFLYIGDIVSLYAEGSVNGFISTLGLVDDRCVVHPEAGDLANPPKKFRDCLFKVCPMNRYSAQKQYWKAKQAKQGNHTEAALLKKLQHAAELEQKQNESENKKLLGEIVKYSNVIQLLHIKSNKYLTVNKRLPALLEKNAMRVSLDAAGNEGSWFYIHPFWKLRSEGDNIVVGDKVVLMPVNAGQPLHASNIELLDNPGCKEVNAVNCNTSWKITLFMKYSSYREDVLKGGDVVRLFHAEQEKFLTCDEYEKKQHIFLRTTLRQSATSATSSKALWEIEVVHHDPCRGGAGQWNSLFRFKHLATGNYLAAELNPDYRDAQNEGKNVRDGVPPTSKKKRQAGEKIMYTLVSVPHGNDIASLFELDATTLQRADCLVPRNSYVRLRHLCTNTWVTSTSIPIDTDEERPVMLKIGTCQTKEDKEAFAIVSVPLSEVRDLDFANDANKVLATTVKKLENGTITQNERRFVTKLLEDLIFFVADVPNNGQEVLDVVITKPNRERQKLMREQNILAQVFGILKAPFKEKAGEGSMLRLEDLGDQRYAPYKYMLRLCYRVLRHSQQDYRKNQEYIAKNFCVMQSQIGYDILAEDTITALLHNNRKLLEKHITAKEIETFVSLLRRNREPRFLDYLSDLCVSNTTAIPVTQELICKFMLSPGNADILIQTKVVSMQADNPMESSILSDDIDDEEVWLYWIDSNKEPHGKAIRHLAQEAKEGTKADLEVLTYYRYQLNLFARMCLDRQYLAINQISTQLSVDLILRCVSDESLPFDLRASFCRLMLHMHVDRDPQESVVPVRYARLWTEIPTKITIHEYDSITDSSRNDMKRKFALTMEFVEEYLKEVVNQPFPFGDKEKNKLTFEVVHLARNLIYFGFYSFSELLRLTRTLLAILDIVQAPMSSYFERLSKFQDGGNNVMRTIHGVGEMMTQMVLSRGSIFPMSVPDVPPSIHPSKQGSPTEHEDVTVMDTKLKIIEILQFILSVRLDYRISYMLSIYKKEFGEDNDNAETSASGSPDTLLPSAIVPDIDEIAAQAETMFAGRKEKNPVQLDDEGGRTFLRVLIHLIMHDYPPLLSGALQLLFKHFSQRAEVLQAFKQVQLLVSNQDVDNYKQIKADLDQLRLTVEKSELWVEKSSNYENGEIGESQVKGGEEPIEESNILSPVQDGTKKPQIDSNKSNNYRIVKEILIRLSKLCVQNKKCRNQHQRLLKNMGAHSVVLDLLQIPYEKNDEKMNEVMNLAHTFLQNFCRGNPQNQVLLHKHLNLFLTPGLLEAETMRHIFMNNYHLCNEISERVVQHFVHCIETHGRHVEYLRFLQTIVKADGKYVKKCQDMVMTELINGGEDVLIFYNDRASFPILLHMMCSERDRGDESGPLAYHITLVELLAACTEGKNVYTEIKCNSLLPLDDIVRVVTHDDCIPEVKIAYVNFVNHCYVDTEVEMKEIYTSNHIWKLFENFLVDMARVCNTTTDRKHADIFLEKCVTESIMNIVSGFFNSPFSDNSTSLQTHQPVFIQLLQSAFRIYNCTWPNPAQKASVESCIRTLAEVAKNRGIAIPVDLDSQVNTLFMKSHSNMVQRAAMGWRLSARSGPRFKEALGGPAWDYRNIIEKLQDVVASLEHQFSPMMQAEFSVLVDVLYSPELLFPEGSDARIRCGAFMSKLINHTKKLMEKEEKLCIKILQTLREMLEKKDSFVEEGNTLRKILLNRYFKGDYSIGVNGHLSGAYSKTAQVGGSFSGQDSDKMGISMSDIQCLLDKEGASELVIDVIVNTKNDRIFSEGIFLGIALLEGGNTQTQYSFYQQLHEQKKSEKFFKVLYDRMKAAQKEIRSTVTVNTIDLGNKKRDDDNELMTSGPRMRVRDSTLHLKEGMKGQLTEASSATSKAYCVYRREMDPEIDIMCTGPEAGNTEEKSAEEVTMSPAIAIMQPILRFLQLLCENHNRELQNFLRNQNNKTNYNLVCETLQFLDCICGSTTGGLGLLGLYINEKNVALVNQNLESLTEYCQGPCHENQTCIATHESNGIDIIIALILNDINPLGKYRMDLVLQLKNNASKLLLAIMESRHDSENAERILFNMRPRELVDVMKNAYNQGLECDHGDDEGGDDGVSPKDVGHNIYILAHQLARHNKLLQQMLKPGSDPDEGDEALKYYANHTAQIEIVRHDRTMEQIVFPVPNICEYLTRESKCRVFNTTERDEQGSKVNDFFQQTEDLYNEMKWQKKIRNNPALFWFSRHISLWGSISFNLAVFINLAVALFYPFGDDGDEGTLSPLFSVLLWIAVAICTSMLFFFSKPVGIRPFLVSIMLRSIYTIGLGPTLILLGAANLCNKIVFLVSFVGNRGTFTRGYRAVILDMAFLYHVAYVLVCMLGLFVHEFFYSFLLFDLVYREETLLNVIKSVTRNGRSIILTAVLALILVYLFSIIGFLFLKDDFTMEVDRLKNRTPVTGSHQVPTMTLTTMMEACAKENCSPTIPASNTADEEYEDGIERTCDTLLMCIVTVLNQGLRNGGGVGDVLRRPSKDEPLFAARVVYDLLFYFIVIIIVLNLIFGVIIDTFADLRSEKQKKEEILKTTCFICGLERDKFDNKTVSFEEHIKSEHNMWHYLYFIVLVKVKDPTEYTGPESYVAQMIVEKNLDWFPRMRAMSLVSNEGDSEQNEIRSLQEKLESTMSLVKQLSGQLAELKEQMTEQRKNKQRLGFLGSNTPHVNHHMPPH

SMILES | % engagement ABCB8_C462 [1] | % engagement ITPR2_C292 [2] | % engagement SLC12A8_C660 [3]
C=CC(=O)N1C[C@@H](c2ccc(Br)cc2)[C@H]1C(=O)Nc1cccc2cccnc12 [MY-1A, (2S,3R)-1-acryloyl-3-(4-bromophenyl)-N-(quinolin-8-yl)azetidine-2-carboxamide] | 28.5% | 24.5% | 77.5%
C=CC(=O)N1C[C@H](c2ccc(Br)cc2)[C@@H]1C(=O)Nc1cccc2cccnc12 [MY-1B, (2R,3S)-1-acryloyl-3-(4-bromophenyl)-N-(quinolin-8-yl)azetidine-2-carboxamide] | 39% | 70% | 61.5%
C=CC(=O)N1C[C@H](c2ccc(Br)cc2)[C@H]1C(=O)Nc1cccc2cccnc12 [MY-3A, (2S,3S)-1-acryloyl-3-(4-bromophenyl)-N-(quinolin-8-yl)azetidine-2-carboxamide] | 19.5% | 48.5% | 41%
C=CC(=O)N1C[C@H](c2ccc(Br)cc2)[C@H]1C(=O)Nc1cccc2cccnc12 [MY-3B, (2S,3S)-1-acryloyl-3-(4-bromophenyl)-N-(quinolin-8-yl)azetidine-2-carboxamide] | 73.25% | 50.5% | 68.5%
